Measured values taken from US9051595B2, “Malt1 specific cleavage in assay and screening method” (University of Lausanne, priority 2007, dated 2015).
Entries after “also recorded” stand apart in the source; their conditions may differ. Peptide text beside a SMILES is read from it. * marks the point of attachment. Cbz = O=C(OCc1ccccc1)*; CH2F = FC*

How the values were obtained:
Type in all cases: cell-based, human
[1] = tested on: Bcl10; assay: Western blot for the faster migrating Bcl10 species (Bcl10 cleavage) in stimulated Jurkat cells pre-treated with inhibitors; details: for generation of the faster migrating Bcl10 species: Jurkat cells pre-incubated 30 min with inhibitor, stimulated with CD3/CD28, FIG. 2a; for anti-CD3/CD28-induced reduction in the apparent molecular weight of Bcl10: stimulated with anti-CD3 and anti-CD28, FIG. 5c
Experimental: For short term stimulations, cells were re-suspended at a density of 5×10^7 cells/mi in RPMI with 0.5% serum and pre-warmed for 10 min at 37° C. before addition of the stimulating agent.
T-cell stimulation was initiated by addition of PMA (10 ng/ml, Alexis) and ionomycin (1 μM, Calbiochem) (P/I) or a combination of anti-human CD3ε (10 μg/ml of OKT3, Apotech) and anti-CD28 (10 μg/ml of CD28.2, Immunotech) antibodies (CD3/CD28), immediately followed by addition of 5 μg/ml of cross-linking goat anti-mouse antibody (Southern Biotech).
Stimulations were stopped by addition of ice-cold Tris-NaCl buffer (20 mM Tris-HCl pH 7.4, 150 mM NaCl), and pelleted cells were lysed in Tris-NaCl lysis buffer containing 1% NP40, proteinase inhibitors (Complete, Roche) and phosphatase inhibitors (cocktails I and II, Sigma).
Postnuclear cell lysates were boiled with reducing SDS-sample buffer and analyzed on 16×20 cm gels by 15% SDS-PAGE according to Anderson, N. L. & Anderson, N. G. Analytical techniques for cell fractions. XXII. Two-dimensional analysis of serum and tissue proteins: multiple gradient-slab gel electrophoresis. Anal Biochem 85, 341-54 (1978).
Primary antibodies used are monoclonal mouse anti-phospho ERK (Sigma), rabbit anti-phospho-IκBα (5A5, Cell Signalling), rabbit anti-IκBα (Sigma), and rabbit anti-Bcl10 (H-197, Santa Cruz).
In a first approach, Jurkat cells were pre-incubated with either the pan-PKC inhibitor bisindolyl-maleimide VIII (BIM) or with Gö6976, an inhibitor of classical (Ca2+- and DAG-dependent) PKC isoforms, before stimulation with CD3/CD28 as indicated in Example 1. For pre-incubation, the cells were incubated with […] Gö6976 (Calbiochem) or 500 nM Bisindoleylmaleimide VIII acetate (Alexis), or solvent control for 30 min at 37° in RPMI with 0.5% serum directly prior to stimulation.
Cell lysis and western blots was done as in Example 1. The primary antibody for the experiment with VSV-tagged wt or VSV-tagged Carma1-DN and Carma1-coiled-coil construct is monoclonal mouse anti-VSV (P5D4, Sigma). For Carma1, a rabbit anti-Carma1 (AL220, Alexis) antibody was used.
(§1) For testing if the observed proteolytic activity is an indirect effect of Malt1 on other proteases, Jurkat cells were pretreated with the lysosomal or proteasomal inhibitors (NH4^+/leupeptin or MG132) or solvent control before stimulation with PMA and ionomycin, and postnuclear lysates were analyzed by Western blot as indicated.
(§2) In an analogue experiment, Jurkat cells were pretreated with the pan-caspase inhibitor zVAD-ink or solvent control, and stimulated with anti-CD3 and anti-CD28 antibodies or hexameric recombinant FasL for the indicated times. Postnuclear lysates were analyzed by Western blot with the indicated primary antibodies (FIG. 5c). A non-specific band (n.s.) of the anti-Bcl10 blot served as a loading control.

[2] = tested on: P-IκB; assay: Western blot for P-IκB in PMA/ionomycin-stimulated Jurkat cells; details: Jurkat cells pretreated with inhibitor, PMA and ionomycin; FIG. 5b
Experimental: as §1

[3] = tested on: Bcl10; assay: Activation-induced cleavage of Bcl10 in living Jurkat T cells and CTLs (Western blot); details: Jurkat T cells or CTLs pre-incubated 1 h with inhibitor, PMA and ionomycin; FIGS. 11b, c
[4] = tested on: NF-κB; assay: anti-CD3/CD28-induced NF-κB activation in Jurkat T cells; details: FIG. 11d
[5] = tested on: IL-2; assay: IL-2 production of Jurkat cells stimulated with Raji cells and superantigen SEE; details: FIG. 11e
Experimental: To test the efficiency of inhibitors, Jurkat T cells stimulated or not with PMA and ionomycin for 20 min are mechanically lysed in cleavage assay buffer (see example 4) in the absence or presence of increasing concentrations of a irreversble cell permeable inhibitor peptide (z-VRPR-fink). This inhibitor was designed based on an optimal substrate cleavage sequence reported for the plant metacaspase AtMC9 (see ref. by Vercammen et al. 2006, J. Mol. Biol., 364(4):625-36). Malt1 protease activity is determined as described in example 4. […] Moreover, experiments are performed to assess the effect of the inhibitor on anti-CD3/CD28-induced NF-κB activation in Jurkat T cells, on IL-2 production of Jurkat cells stimulated by incubation with antigen-presenting cells (Raji cells in combination with the superantigen SEE) and on stimulation-induced adhesion to fibronectin (see example 7)).

[6] = tested on: Jurkat T cells; assay: Stimulation-induced adhesion of Jurkat T cells to fibronectin; details: FIG. 11f
Experimental: Central areas of tissue culture dishes (35-mm×10-mm) were coated for 90 min at 25° C. with 50 μl of fibronectin solution (40 μg/ml; Roche). Coated dishes were washed three times with PBS (without Ca2+ and Mg2+) and were blocked for 2 h with 1% (wt/vol) BSA in PBS. Cells were washed with Hank's balanced-salt solution (Gibco) and were left unstimulated or were stimulated at 37° C. for 30 min with MnCl2 (1 mM) or PMA (100 ng/ml), or for 5 min with anti-human CD3 and anti-CD28 (see example 1). Subsequently, cell suspensions were added to fibronectin-coated tissue culture dishes followed by incubation for additional 30 min at 37° C. Non-adherent cells were removed by washing of the dishes three to five times with Hank's balanced-salt solution. Adherent cells were counted in six separate fields with a microscope with an ocular counting reticule.
To test the efficiency of inhibitors, Jurkat T cells stimulated or not with PMA and ionomycin for 20 min are mechanically lysed in cleavage assay buffer (see example 4) in the absence or presence of increasing concentrations of a irreversble cell permeable inhibitor peptide (z-VRPR-fink). This inhibitor was designed based on an optimal substrate cleavage sequence reported for the plant metacaspase AtMC9 (see ref. by Vercammen et al. 2006, J. Mol. Biol., 364(4):625-36). Malt1 protease activity is determined as described in example 4. […]

[7] = tested on: caspase-8; assay: FasL-induced caspase-8 activation in Jurkat cells (Western blot); details: Jurkat cells pretreated with inhibitor, hexameric recombinant FasL; FIG. 5c
Experimental: as §2

Question: For `Cn1c2ccccc2c2c3c(c4c5ccccc5n(CCC#N)c4c21)CNC3=O` [Gö6976], which “generation of the faster migrating Bcl10 species” value [1] is on record?
Answer: not Gö6976 prevented

Question: `CC(C)C[C@@H](C=O)NC(=O)[C@H](CC(C)C)NC(=O)[C@H](CC(C)C)NC(=O)OCc1ccccc1` [MG132] (Cbz-Leu-Leu-Leu-aldehyde) was tested. Which “generation of the faster migrating Bcl10 species corresponding to Bcl10 cleavage” value ([1]; Jurkat cells pretreated with inhibitor, stimulated with PMA and ionomycin, FIG. 5a, 5b) did it give?
Answer: did not affect; also recorded: lack of an effect

Question: And the “stabilization of P-I[…]B” value [2]?
Answer: efficiently stabilized

Question: With `Cn1cc(C2=C(c3cn(CCCN)c4ccccc34)C(=O)NC2=O)c2ccccc21` [BIM, bisindolyl-maleimide VIII] as the molecule, how does the “generation of the faster migrating Bcl10 species” value [1] read?
Answer: prevented

Question: How did the “activation-induced cleavage of Bcl10” value [3] turn out when z-VRPR-fmk (Cbz-VRPR-CH2F) was run?
Answer: reduction

Question: And the “capacity of T cells to activate NF-κB” value [4]?
Answer: impairs

Question: And the “capacity of T cells to produce IL-2” value [5]?
Answer: impairs

Question: What about the “capacity of T cells to adhere to fibronectin upon T-cell activation” value [6] of the same molecule?
Answer: impairs

Question: What does the source list for `COC(=O)C[C@H](NC(=O)[C@H](C)NC(=O)[C@@H](NC(=O)OCc1ccccc1)C(C)C)C(=O)CF` [zVAD-fmk] (Cbz-Val-Ala-Asp(OMe)-CH2F)?
Answer: anti-CD3/CD28-induced reduction in the apparent molecular weight of Bcl10 ([1]; Jurkat cells pretreated with inhibitor): no effect; anti-CD3/CD28-induced reduction in the apparent molecular weight of Bcl10 ([1]; Jurkat cells pretreated with inhibitor, listed as Z-VAD-fmk): lack of an effect; FasL-induced caspase-8 activation [7]: potently inhibited
